Patent US10786522B2, “Compositions that include anthocyanidins and methods of use” (Maqui NewLife S.A., priority 2009, dated 2020)
Marks after values point to notes of the source that are not given here.

Columns and labels:
Jurkat T cells [1] = experiment: Calcium entry (SOCE) in Jurkat T cells after addition of CaCl2; assay type: cell-based
Description: To measure calcium entry after 200 seconds, when the levels of calcium returned to the baseline, 0.9 mM of CaCl2 was added, and the fluxes of Ca^2+ were measured as ratio of excitation ratio at 340 and 380 nm, and emission at 509 nm in a spectrofluorimeter during 150 seconds.
4×10^6 FURA 2-AM-loaded Jurkat T cells were incubated in HBSS calcium free medium. The cells were incubated in 50 uM delphinidin or 50 uM delphinidin plus 10 μM BTP-2 and the fluxes of Ca^2+ were measured as ratio of excitation at 340 and 380 nm, and emission at 509 nm, at 37° C. in a spectrofluorimeter (LS55, PerkinElmer).

Human T cells [2] = experiment: IL-2 production in freshly isolated human T cells (ELISA); assay type: cell-based; details: Table 7, 48 hrs
Description: (§1) The effect of delphinidin on IL-2 and INF-γ production was also assayed on freshly isolated human T cells. Human T cells were isolated from blood of healthy volunteers using Lymphoprep reagent. T cells (1×10^6) in RMPI medium were incubated for 48 hrs at 37° C., in 5% CO2 in the presence of a vehicle control solution; 50 μM delphinidin; 50 μM delphinidin+1 μM BTP-2; 50 μM delphinidin+5 μM BTP-2; 50 μM delphinidin+10 μM BTP-2; 1 μM BTP-2; 5 μM. BTP-2; or 10 μM BTP-2. Then the supernatants were collected and analyzed using commercial ELISA kit (Becton Dickinson, USA) to measure IL-2 and INF-γ production according to the supplier's directions.
We evaluated the effect of a combination of delphinidin and andandrographolide on IL-2 production in both freshly harvested human T cells and the Jurkat cell line. Andrographolide was prepared according to the method described in Example 4. Human T cells were isolated from blood of healthy volunteers using Lymphoprep reagent. T cells (1×10^6) in RMPI medium were incubated for 48 hrs at 37° C., in 5% CO2 in the presence of a vehicle control solution; 5 nM andrographolide; 50 μM delphinidin; or 5 nM andrographolide plus 50 μM delphinidin. Then the supernatants were collected and analyzed using commercial ELISA kit (Becton Dickinson, USA) to measure IL-2 production according to the supplier's directions.

Human T cells [3] = experiment: INF-γ production in freshly isolated human T cells (ELISA); assay type: cell-based; details: 48 hrs
Description: as §1

Sprague Dawley rats = experiment: Acute plantar inflammation model (carragenin) in rats; assay type: in vivo, rat; details: 1% carragenin, 6 hrs; anthocyanidins 35 mg/kg, diclofenac 2 mg/kg
Description: We assayed the effect of anthocyanidins on inflammation in vivo in an acute plantar inflammation model. Inflammation was induced in Sprague Dawley rats (200 g) using 1% carragenin (Sigma-Aldrich). The animals were treated with 35 mg/kg of anthocyanidins rich in […] (prepared according to the method descirbed in Example 1) or with diclofenac (2 mg/kg). The diameter of the treated legs was measured with a digital caliper over 6 hrs.

PPAR-γ = experiment: PPAR-γ-Luc reporter assay in HL-60 cells; assay type: cell-based, Human; details: control substances, 12 h, concentration not given
Description: We examined the effect of delphindin-rich anthocyanidins on PPAR-γ activation. HL-60 cells in IMDM medium were transfected with the reporter vectors PPAR-γ-Luc (5 μg) (Panomics) and TK-RL (1 μg) (Promega) using Fugene 6 reagent (Roche), and cultured for 24 hr. Then, the cells were incubated for 12 h in 0.175, 1.75, or 17.5 μg/ml of delphindin-rich anthocyanidins, phorbol myristate acetate (PMA), 15-deoxi-d 12,14-prostaglandin J2 (PGj2), or tumor necrosis factor alpha (TNFα) as controls. Luciferase activity was measured using the Dual-Luciferase Reporter Assay kit (DLR) from Promega in a luminometer (Luminoskan).

Jurkat T cells [4] = experiment: Calcium release in Jurkat T cells in HBSS calcium free medium; assay type: cell-based; details: 50 or 100 uM U73122 for 10 minutes prior to 50 uM delphinidin
Description: To measure calcium release, 4×10^6 FURA 2-AM-loaded Jurkat T cells were incubated in HBSS calcium free medium as decribed in Example 6. The cells were incubated in 50 uM delphinidin, or in 50 uM delphinidin and 10 μM N-[4-[3,5-bis(trifluoromethyl)-1H-pyrazol-1-yl]phenyl]-4-methyl-1,2,3-thiadiazole-5-carboxamide (BTP-2, a Store-Operated Calcium Entry (SOCE) inhibitor). The release of Ca^2+ was measured as ratio of excitation at 340 and 380 nm, and emission at 509 nm, for 200 seconds, at 37° C., in a spectrofluorimeter (LS55, PerkinElmer).
4×10^6 FURA 2-AM-loaded Jurkat T cells were incubated in HBSS calcium free medium. The cells were then incubated in 50 uM delphinidin and the fluxes of Ca^2+ were measured as ratio of excitation at 340 and 380 nm, and emission at 509 nm, at 37° C. in a spectrofluorimeter (LS55, PerkinElmer).
4×10^6 FURA 2-AM-loaded Jurkat T cells were incubated in HBSS calcium free medium. The cells were then treated with vehicle alone or 50 or 100 uM U73122 for 10 minutes prior to incubation in 50 uM delphinidin. Ca^2+ flux was measured as ratio of excitation at 340 and 380 nm, and emission at 509 nm, at 37° C. in a spectrofluorimeter (LS55, PerkinElmer).

[5] = 1 μM BTP-2, alone or with 50 μM delphinidin
[6] = 5 μM BTP-2, alone or with 50 μM delphinidin
[7] = 10 μM BTP-2, alone or with 50 μM delphinidin

What does the source list for `Cc1nnsc1C(=O)Nc1ccc(-n2nc(C(F)(F)F)cc2C(F)(F)F)cc1` [BTP-2, N-[4-[3,5-bis(trifluoromethyl)-1H-pyrazol-1-yl]phenyl]-4-methyl-1,2,3-thiadiazole-5-carboxamide]?
delphinidin-induced calcium influx in the presence of inhibitor (FIG. 2A, 2B) (Jurkat T cells [1]; delphinidin 50 μM plus BTP-2 10 μM): reduced; effect on calcium entry and release, result in words (Jurkat T cells [1]; delphinidin 50 μM, BTP-2 10 μM): inhibited the entry, but not the release; Average IL-2 production (Human T cells [2]; [5]): 0 pg/mL; Average IL-2 production (Human T cells [2]; [6]): 0 pg/mL; Average IL-2 production (Human T cells [2]; [7]): 0 pg/mL; Average INF-γ production (Human T cells [3]; [5]): 240 pg/mL; Percentage vs. control (INF-γ) (Human T cells [3]; [5]): 64.9%; Average INF-γ production (Human T cells [3]; [6]): 390 pg/mL; Percentage vs. control (INF-γ) (Human T cells [3]; [6]): 105.4%; Average INF-γ production (Human T cells [3]; [7]): 140 pg/mL; Percentage vs. control (INF-γ) (Human T cells [3]; [7]): 37.8%

`O=C(O)Cc1ccccc1Nc1c(Cl)cccc1Cl` [Diclofenac, diclofenac] was tested. Which “Average ABC0-6 (area under the curve of the diameter of the treated legs)” value (Sprague Dawley rats) did it give?
The value was 12.5** mm*hr.

What about the “Decrease percentage compared to control (ABC0-6)” value (Sprague Dawley rats) of the same compound?
The value was 37.5%.

`CCCCC/C=C/C=C1/C(=O)C=C[C@@H]1C/C=C\CCCC(=O)O` [PGj2, 15-deoxi-d 12,14-prostaglandin J2] was tested. Which “Average percentage activity of control [PPAR-γ-Luc/TK-RL] ± SD” value (PPAR-γ) did it give?
Its value is 256.8 ± 126.9%.

Which “delphinidin induced calcium flux after pretreatment (FIG. 3)” value (Jurkat T cells [4]) does the source give for `COc1ccc2c(c1)CC[C@@H]1[C@@H]2CC[C@]2(C)[C@@H](NCCCCCCN3C(=O)C=CC3=O)CC[C@@H]12` [U73122, reference compound] here?
The value was “dose-dependent reduction”.
